From US20110178104A1, “Anti-Heparin Compounds” (POLYMEDIX INC., priority 2010, published 2011)
≈ marks a conversion by molar mass, not a printed value. Read-outs that look alike come from different tables or passages of the source. Starred links: 1 amine or outer side, 2 acyl side, 3 side chain; linkers in the order of their positions; H or OH if unused. Non-standard residues stand in square brackets, D forms with d. Residues, ends and D or L forms follow the SMILES beside them. *: point of attachment. NH(3-CONH2-4-OMe-phenyl) = COc1ccc(N*)cc1C(N)=O; 3Abz(6-OMe) = COc1ccc(N[*:1])cc1C(=O)[*:2]; X1 = O=C(O)COc1ccc(N[*:1])cc1C(=O)[*:2]

Assays:
Unfractionated heparin = assay: aPTT clotting assay, UFH 0.4 U/mL in plasma (Example 10); type: biochemical; settings: unfractionated heparin 0.4 U/mL in plasma; aPTT clotting
Method: aPTT clotting Assay: Unfractionated heparin was mixed with plasma at a final concentration of 0.4 U/mL (or concentration which increases aPTT time to between 120 and 300 seconds). […] The ACL Elite Hemostasis analyzer (Beckman Coulter™) was used to add aPTT reagent (HemosIL SynthASil) to supplemented plasma. Clotting was initiated by addition of CaCl2 and time to clot was recorded.

fondaparinux = assay: FXa amidolytic assay (Example 10), fondaparinux; settings: for EC50: read-out: Fondap FXa EC50, fondaparinux 0.02 μg/mL, human antithrombin, bovine Factor Xa
Method: (§2) Two μl of test agent are added (range between 0.01 and 23 ug/ml) and incubated for 5 minutes at 23° C. Bovine Factor Xa was added to a final concentration of 0.636 nkat/mL and incubated for a further 10 minutes at 23° C.

tinzaparin = assay: FXa amidolytic assay (Example 10), tinzaparin; settings: read-out: Tinzap FXa EC50; tinzaparin 0.1 ug/ml; human antithrombin, bovine Factor Xa
Method: as §2

[1] = system: isolated human erythrocytes; assay: cells; type: cell-based; settings: Homo sapiens, Erythrocyte, 1 h, read-out: Hemolysis EC50
Outline: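 Test agent was serially diluted two-fold over 0.48–1000 µg/ml and incubated for 1 h at 37 °C with shaking, using erythrocytes from pooled human blood diluted in Tris-buffered saline pH 7.4 (0.22% stock). Hemolysis was measured as supernatant absorbance at 405 nm. A four-parameter logistic equation gave EC50, and melittin served as the positive control.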

UFH = assay: FXa amidolytic assay (Example 10), UFH; settings: read-out: Heparin FXa uM EC50; UFH 0.03 units/mL; human antithrombin, bovine Factor Xa
Method: as §2

[2] = Cytotoxicity colorimetric assay, HepG2; type: cell-based, human; settings: human, HepG2 cells, one hour in serum-free media
Method: (§1) This assay measures the bioreduction of a novel tetrazolium compound to a soluble formazan product by viable cells. HepG2 cells were seeded in 96 well plates at 3×10^4 cells/well in MEM medium with 10% fetal bovine serum (FBS) 24 hours prior to use. NIH/3T3 cells were seeded in 96 well plates at 2×10^4 cells/well in DMEM medium with 10% bovine calf serum (BCS) 24 hours prior to use. Cell monolayers were rinsed in serum-free media and incubated for one hour with test agent in serum-free media. After incubation, the media was replaced with serum supplemented media and live cells were measured using the Cell Titer 96 Aqueous […] Assay kit (Promega, Madison, Wis.). EC50 values were determined using a four parameter logistic equation: Y=Bottom+(Top-Bottom)/(1+10̂((LogEC50-X)*HillSlope)).

enoxaparin = assay: FXa amidolytic assay (Example 10), enoxaparin; settings: read-out: Enox FXa EC50; enoxaparin 0.1 ug/ml; human antithrombin, bovine Factor Xa
Method: as §2

[3] = Cytotoxicity colorimetric assay, NIH/3T3; type: cell-based, mouse; settings: mouse, NIH/3T3 cells, one hour in serum-free media
Method: as §1

| SMILES | EC50 (Unfractionated heparin) | EC50 (fondaparinux) | EC50 (tinzaparin) | EC50 ([1]; human RBC, 1 hour at 37° C.) | EC50 (UFH) | EC50 at 1 h [2] | EC50 (enoxaparin) | EC50 at 1 h [3] | EC50 [1] | Potent LMWH-antagonists with superior anti-fondaparinux activity (summary) (fondaparinux) |
| --- | --- | --- | --- | --- | --- | --- | --- | --- | --- | --- |
| COc1ccc(NC(=O)[C@H](CCCCN)NC(=O)c2cc(NC(=O)[C@H](CCCCN)NC(=O)c3cc(NC(=O)[C@H](CCCCN)NC(=O)c4cc(NC(=O)[C@H](CCCCN)NC(=O)[C@@H](N)Cc5c[nH]c6ccccc56)ccc4OC)ccc3OC)ccc2OCC(=O)O)cc1C(N)=O [Compound 352] (H-WK[3Abz(6-OMe)]K[3Abz(6-OMe)]K[X1]K-{NH(3-CONH2-4-OMe-phenyl)}) | 2.27 µM | 0.934 µM | 0.162 µM | > 1000 mg/L | 0.287 µM | 758 mg/L (≈ 559 µM) | 0.299 µM | > 1000 mg/L |  |  |
| COc1ccc(NC(=O)[C@H](CCCCN)NC(=O)c2cc(NC(=O)[C@H](CCCCN)NC(=O)c3cc(NC(=O)[C@H](CCCCN)NC(=O)c4cc(NC(=O)[C@H](CCCCN)NC(=O)c5ccccc5)ccc4OC)ccc3OC)ccc2OC)cc1C(N)=O [Compound 353] | 1.63 µM | 0.407 µM | 0.104 µM |  | 0.198 µM | > 1000 mg/L | 0.123 µM | ~100 mg/L (≈ 81.3 µM) | > 1000 mg/L |  |
| COc1ccc(NC(=O)[C@H](CCCCN)NC(=O)c2cc(NC(=O)[C@H](CCCCN)NC(=O)c3cc(NC(=O)[C@H](CCCCN)NC(=O)c4cc(NC(=O)[C@H](CCCCN)NC(=O)c5ccccc5)ccc4OC)ccc3OC)ccc2OCC(=O)O)cc1C(N)=O [Compound 354] | 2.2 µM | 0.202 µM | 0.109 µM |  | 0.214 µM | > 1000 mg/L | 0.117 µM | > 1000 mg/L | > 1000 mg/L | superior anti-fondaparinux activity |
| COc1ccc(NC(=O)[C@H](CCCCN)NC(=O)c2cc(NC(=O)[C@H](CCCCN)NC(=O)c3cc(NC(=O)[C@H](CCCCN)NC(=O)c4cc(NC(=O)[C@H](CCCCN)NC(=O)Cc5ccccc5)ccc4OC)ccc3OC)ccc2OC)cc1C(N)=O [Compound 355] | 1.41 µM | 0.8 µM | 0.067 µM |  | 0.147 µM | 133 mg/L (≈ 107 µM) | 0.095 µM | 52 mg/L (≈ 41.8 µM) | > 1000 mg/L |  |
| COC(=O)c1ccc(C(=O)N[C@@H](CCCCN)C(=O)Nc2ccc(OC)c(C(=O)N[C@@H](CCCCN)C(=O)Nc3ccc(OC)c(C(=O)N[C@@H](CCCCN)C(=O)Nc4ccc(OC)c(C(=O)N[C@@H](CCCCN)C(=O)Nc5ccc(OC)c(C(N)=O)c5)c4)c3)c2)cc1 [Compound 359] | 1.39 µM | 0.115 µM | 0.073 µM | > 1000 mg/L | 0.189 µM | > 1000 mg/L | 0.09 µM | > 1000 mg/L |  |  |
| COc1cc(OCC(N)=O)c(C(=O)N[C@H]2CC[C@H](NC(=O)c3cc(C(=O)NCCN(C)C)c(OCCCCCN)cc3OCCCCCN)CC2)cc1C(=O)N[C@H]1CC[C@H](NC(=O)c2cc(C(=O)NCCN(C)C)c(OCCCCCN)cc2OCCCCCN)CC1 [Compound 379] | 1.62 µM | > 10 µM | 0.095 µM | > 1000 mg/L | 0.13 µM | > 1000 mg/L | 0.464 µM | 650 mg/L (≈ 499 µM) |  |  |
| COc1cc(OC)c(C(=O)N[C@H]2CC[C@@H](NC(=O)c3ccc(OCCCCCNC(=N)N)cc3OCCCCCNC(=N)N)CC2)cc1C(=O)N[C@H]1CC[C@@H](NC(=O)c2ccc(OCCCCCNC(=N)N)cc2OCCCCCNC(=N)N)CC1 [Compound 380] | 1.69 µM | 0.18 µM | 0.071 µM | > 1000 mg/L | 0.164 µM | 81.3 mg/L (≈ 67.8 µM) | 0.089 µM | 43.2 mg/L (≈ 36 µM) |  |  |
| COc1cc(OC)c(C(=O)N[C@H]2CC[C@@H](NC(=O)c3cc(C(=O)N[C@H]4CC[C@@H](NC(=O)c5cc(C(=O)NCCN)c(OC)cc5OC)CC4)c(OC)cc3OC)CC2)cc1C(=O)NCCN [Compound 381] | 2.69 µM | 0.493 µM | 0.274 µM | 22.4 mg/L (≈ 24.4 µM) | 0.777 µM | 1130 mg/L (≈ 1230 µM) | 0.289 µM | 1080 mg/L (≈ 1180 µM) |  |  |
| COc1cc(OC)c(C(=O)Nc2ccc(NC(=O)c3ccc(OCCCCCN)cc3OCCCCCN)cc2)cc1C(=O)Nc1ccc(NC(=O)c2ccc(OCCCCCN)cc2OCCCCCN)cc1 [Compound 411] | 1.15 µM | 0.061 µM | 0.123 µM | > 1000 mg/L |  | 590 mg/L (≈ 579 µM) | 0.096 µM | 86 mg/L (≈ 84.4 µM) |  | superior anti-fondaparinux activity |
